This note sets out measurements from PMC3502260, “Plasmodium serine hydroxymethyltransferase as a potential anti-malarial target: inhibition studies using improved methods for enzyme production and assay” (Malaria Journal, 2012).

The target of experiment [1] is T1, PfSHMT (Plasmodium falciparum, UniProt Q8I566).
T1 construct: gene SHMT; recombinant, expressed in E. coli BL21(DE3) as in an earlier report, purified on Ni-Sepharose; dimer
T1 sequence (Q8I566 1-442): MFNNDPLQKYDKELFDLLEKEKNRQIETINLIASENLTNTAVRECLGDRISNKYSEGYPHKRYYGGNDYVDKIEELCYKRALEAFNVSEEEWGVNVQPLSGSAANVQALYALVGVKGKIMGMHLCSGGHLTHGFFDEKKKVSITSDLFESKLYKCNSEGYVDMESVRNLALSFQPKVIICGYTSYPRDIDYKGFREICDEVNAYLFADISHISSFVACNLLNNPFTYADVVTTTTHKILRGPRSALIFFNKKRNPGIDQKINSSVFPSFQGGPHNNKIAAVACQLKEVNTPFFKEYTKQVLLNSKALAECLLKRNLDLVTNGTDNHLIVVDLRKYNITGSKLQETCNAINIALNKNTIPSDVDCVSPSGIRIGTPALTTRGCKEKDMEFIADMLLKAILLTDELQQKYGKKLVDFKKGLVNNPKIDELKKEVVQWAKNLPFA
In words: PLP fluorescence quenching. The class given is binding. To be noted: 10 mM ligand, ~23 μM enzyme, 25 °C, 50 mM HEPES pH 7.

The target of experiment [2] is T2, PvSHMT (Plasmodium vivax, UniProt A5K8L9).
T2 construct: gene PVX_100730; recombinant, expressed in E. coli BL21(DE3) as in an earlier report; dimer
T2 sequence (A5K8L9 1-442): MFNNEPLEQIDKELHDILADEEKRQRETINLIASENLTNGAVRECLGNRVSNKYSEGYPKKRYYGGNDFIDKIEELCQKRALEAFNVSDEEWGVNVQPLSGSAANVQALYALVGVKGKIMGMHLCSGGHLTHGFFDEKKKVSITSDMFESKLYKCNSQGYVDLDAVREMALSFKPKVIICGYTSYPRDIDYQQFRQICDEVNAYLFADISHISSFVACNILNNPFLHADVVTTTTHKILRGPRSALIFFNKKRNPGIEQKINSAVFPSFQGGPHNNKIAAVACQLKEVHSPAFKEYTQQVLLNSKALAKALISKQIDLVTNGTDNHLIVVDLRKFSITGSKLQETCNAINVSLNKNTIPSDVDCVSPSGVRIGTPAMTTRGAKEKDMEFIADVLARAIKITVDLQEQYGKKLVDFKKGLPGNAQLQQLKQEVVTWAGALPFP
In words: PLP fluorescence quenching. The class given is binding. To be noted: 10 mM ligand, ~23 μM enzyme, 25 °C, 50 mM HEPES pH 7.

Experiment [3] deals with T1, PfSHMT. In words: time-dependent inactivation, SHMT-MTHFD coupled assay. The class given is biochemical. Conditions: covalent; time-dependent inactivation by reaction with PLP; preincubation 5-30 min; 25 °C, 50 mM HEPES pH 7.
The target in experiment [4] is T2, PvSHMT. The description is as above. The class given is biochemical. Conditions: covalent; time-dependent inactivation by reaction with PLP; preincubation 5-30 min; 25 °C, 50 mM HEPES pH 7.
Experiment [5] deals with T2, PvSHMT. As to the kind of experiment: SHMT-MTHFD coupled assay, initial rates. It is filed as biochemical. To be noted: read-out: % inhibition at 0.25 mM.
The target in experiment [6] is T1, PfSHMT. As to the kind of experiment: SHMT-MTHFD coupled assay, initial rates. The class given is biochemical. To be noted: read-out: % inhibition at 0.1 mM.

The inhibition is the drop in the measured response relative to a control, in per cent.

With `N[C@H](CO)C(=O)O` [D-serine], the PLP fluorescence quenching result on PfSHMT [1] was “Upon addition of amino acids (L-, D-serine, L-alanine, and glycine), the fluorescence signal of Pf-”; at PvSHMT [2] it was “the fluorescence signal of Pf- and PvSHMT was quenched”.
As to `NNC(N)=S` [thiosemicarbazide], the values for the KI (inactivation) on PfSHMT [3] and at PvSHMT [4] were 360 ± 70 µM and 210 ± 80 µM, respectively.
Consider `NCC(=O)O` [glycine], for which the PLP fluorescence quenching result on PfSHMT [1] is “for PfSHMT the binding of glycine caused the largest decrease in fluorescence intensity”; on PvSHMT [2], “the fluorescence signal of Pf- and PvSHMT was quenched”.
For `CCc1nc(N)nc(N)c1OCCCOc1ccnc2ccccc12` [TV-P-0-113], the inhibition at 250 µM on PvSHMT [5] came to 40%.
Consider `N[C@@H](CO)C(=O)O` [L-serine], for which, at PfSHMT [1], the PLP fluorescence quenching entry was “Upon addition of amino acids (L-, D-serine, L-alanine, and glycine), the fluorescence signal of Pf-”.
Turning to `CCCCOc1cc(Cc2cnc(N)nc2N)ccc1OCc1cc(OC)c(OC)c(OC)c1` [CT-57-59-38], the inhibition at 100 µM at PfSHMT [6] came out at 40%.
For the compound `C[C@H](N)C(=O)O` [L-alanine], the PLP fluorescence quenching entry is “Upon addition of amino acids (L-, D-serine, L-alanine, and glycine), the fluorescence signal of Pf-” on PfSHMT [1]; “the fluorescence signal of Pf- and PvSHMT was quenched” on PvSHMT [2].
With `CCOc1cc(Cc2cnc(N)nc2N)ccc1OCCCc1ccccc1` [CT-55-59-42], the inhibition at 100 µM on PfSHMT [6] amounted to 40%.
